# How the values were obtained:
# Test in all cases: Test C preemergence
# Assay type in all cases: in vivo
# Settings in all cases: scale 0 to 100, 0 no effect, 100 complete control
# [1] = tested on: Galium (catchweed bedstraw, Galium aparine)
# In short: (§1)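 Visual rating, 0–100 scale (0 = no effect, 100 = complete control) versus controls, 13–15 d after treatment. Compounds in non-phytotoxic solvent plus surfactant; applied preemergence to seeds in loam/sand soil or postemergence to 1- to 4-leaf plants (2–18 cm) in peat/vermiculite medium; greenhouse-held.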
# [2] = tested on: barnyardgrass (Echinochloa crus-galli)
# In short: as §1
# [3] = tested on: blackgrass (Alopecurus myosuroides)
# In short: as §1
# corn (Zea mays) = tested on: corn (Zea mays)
# In short: as §1
# [4] = tested on: crabgrass, large (large crabgrass, Digitaria sanguinalis)
# In short: as §1
# [5] = tested on: foxtail, giant (giant foxtail, Setaria faberii)
# In short: as §1
# [6] = tested on: lambsquarters (Chenopodium album)
# In short: as §1
# [7] = tested on: morningglory (Ipomoea coccinea)
# In short: as §1
# [8] = tested on: nutsedge, yellow (yellow nutsedge, Cyperus esculentus)
# In short: as §1
# [9] = tested on: oilseed rape (Brassica napus)
# In short: as §1
# [10] = tested on: ragweed (common ragweed, Ambrosia elatior)
# In short: as §1
# [11] = tested on: ryegrass, Italian (Italian ryegrass, Lolium multiflorum)
# In short: as §1
# soybean (Glycine max) = tested on: soybean (Glycine max)
# In short: as §1
# [12] = tested on: velvetleaf (Abutilon theophrasti)
# In short: as §1
# [13] = tested on: waterhemp (common waterhemp, Amaranthus rudis)
# In short: as §1
# [14] = tested on: wheat (winter wheat, Triticum aestivum)
# In short: as §1
smiles,measurement,setting,value
CN1CC(c2ccc(C(F)(F)F)c(F)c2)C(C(=O)Nc2ccccc2S(C)(=O)=O)C1=O (centres unmarked) [Compound 397],"Plant response rating, Galium",[1]; 31 g ai/ha,40
same,"Plant response rating, Galium",[1]; 62 g ai/ha,80
same,"Plant response rating, Galium",[1]; 125 g ai/ha,90
same,"Plant response rating, Galium",[1]; 250 g ai/ha,90
same,"Plant response rating, Barnyardgrass",[2]; 31 g ai/ha,90
same,"Plant response rating, Barnyardgrass",[2]; 62 g ai/ha,95
same,"Plant response rating, Barnyardgrass",[2]; 125 g ai/ha,98
same,"Plant response rating, Barnyardgrass",[2]; 250 g ai/ha,98
same,"Plant response rating, Blackgrass",[3]; 31 g ai/ha,55
same,"Plant response rating, Blackgrass",[3]; 62 g ai/ha,70
same,"Plant response rating, Blackgrass",[3]; 125 g ai/ha,90
same,"Plant response rating, Blackgrass",[3]; 250 g ai/ha,90
same,"Plant response rating, Corn",corn (Zea mays); 31 g ai/ha,25
same,"Plant response rating, Corn",corn (Zea mays); 62 g ai/ha,15
same,"Plant response rating, Corn",corn (Zea mays); 125 g ai/ha,60
same,"Plant response rating, Corn",corn (Zea mays); 250 g ai/ha,75
same,"Plant response rating, Crabgrass, Large",[4]; 31 g ai/ha,98
same,"Plant response rating, Crabgrass, Large",[4]; 62 g ai/ha,98
same,"Plant response rating, Crabgrass, Large",[4]; 125 g ai/ha,100
same,"Plant response rating, Crabgrass, Large",[4]; 250 g ai/ha,100
same,"Plant response rating, Foxtail, Giant",[5]; 31 g ai/ha,95
same,"Plant response rating, Foxtail, Giant",[5]; 62 g ai/ha,95
same,"Plant response rating, Foxtail, Giant",[5]; 125 g ai/ha,98
same,"Plant response rating, Foxtail, Giant",[5]; 250 g ai/ha,98
same,"Plant response rating, Lambsquarters",[6]; 31 g ai/ha,30
same,"Plant response rating, Lambsquarters",[6]; 62 g ai/ha,70
same,"Plant response rating, Lambsquarters",[6]; 125 g ai/ha,75
same,"Plant response rating, Lambsquarters",[6]; 250 g ai/ha,75
same,"Plant response rating, Morningglory",[7]; 31 g ai/ha,5
same,"Plant response rating, Morningglory",[7]; 62 g ai/ha,55
same,"Plant response rating, Morningglory",[7]; 125 g ai/ha,60
same,"Plant response rating, Morningglory",[7]; 250 g ai/ha,70
same,"Plant response rating, Nutsedge, Yellow",[8]; 31 g ai/ha,0
same,"Plant response rating, Nutsedge, Yellow",[8]; 62 g ai/ha,10
same,"Plant response rating, Nutsedge, Yellow",[8]; 125 g ai/ha,50
same,"Plant response rating, Nutsedge, Yellow",[8]; 250 g ai/ha,70
same,"Plant response rating, Oilseed Rape",[9]; 31 g ai/ha,20
same,"Plant response rating, Oilseed Rape",[9]; 62 g ai/ha,70
same,"Plant response rating, Oilseed Rape",[9]; 125 g ai/ha,80
same,"Plant response rating, Oilseed Rape",[9]; 250 g ai/ha,85
same,"Plant response rating, Ragweed",[10]; 31 g ai/ha,20
same,"Plant response rating, Ragweed",[10]; 62 g ai/ha,75
same,"Plant response rating, Ragweed",[10]; 125 g ai/ha,70
same,"Plant response rating, Ragweed",[10]; 250 g ai/ha,70
same,"Plant response rating, Ryegrass, Italian",[11]; 62 g ai/ha,60
same,"Plant response rating, Ryegrass, Italian",[11]; 125 g ai/ha,60
same,"Plant response rating, Ryegrass, Italian",[11]; 250 g ai/ha,60
same,"Plant response rating, Soybean",soybean (Glycine max); 62 g ai/ha,0
same,"Plant response rating, Soybean",soybean (Glycine max); 125 g ai/ha,0
same,"Plant response rating, Soybean",soybean (Glycine max); 250 g ai/ha,20
same,"Plant response rating, Velvetleaf",[12]; 62 g ai/ha,25
same,"Plant response rating, Velvetleaf",[12]; 125 g ai/ha,30
same,"Plant response rating, Velvetleaf",[12]; 250 g ai/ha,45
same,"Plant response rating, Waterhemp",[13]; 62 g ai/ha,90
same,"Plant response rating, Waterhemp",[13]; 125 g ai/ha,98
same,"Plant response rating, Waterhemp",[13]; 250 g ai/ha,95
same,"Plant response rating, Wheat",[14]; 62 g ai/ha,45
same,"Plant response rating, Wheat",[14]; 125 g ai/ha,45
same,"Plant response rating, Wheat",[14]; 250 g ai/ha,70
